Results taken from patent US20250215030A1, “STAT MODULATORS AND USES THEREOF” (Recludix Pharma, Inc., priority 2022, published 2025).
Values belong to the compound of their own block, whether it stands above or below them.

Legend:
[1] = target: T1, Recombinant STAT3 protein (STAT3(G127-I722)) (Homo sapiens, UniProt P40763); test: STAT3 Fluorescence Polarization (FP) Assay; assay type: binding; settings: STAT3(G127-I722) 25 nM, probe 5-FAM-GpYLPQTV-NH2 2 nM, 45-minute incubation
T1 construct: STAT3(G127-I722)
In short: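 STAT3(G127-I722) at 25 nM and 5-FAM-GpYLPQTV-NH2 probe at 2 nM in HEPES pH 7.4 buffer with NaCl, EDTA, Tween 20, DTT; 1% DMSO. FP read after 45 min at room temperature; IC50 by nonlinear regression of mP vs log concentration, binned A ≤100 nM to D >10 μM.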

[2] = target: T2, Recombinant STAT6 protein (STAT6(W123-T658)) (Homo sapiens, UniProt P42226); test: STAT6 Fluorescence Polarization (FP) Assay; assay type: binding; settings: STAT6(W123-T658) 250 nM, probe 5-FAM-ApYKPFQDLI-NH2 2 nM, 45-minute incubation
T2 construct: STAT6(W123-T658)
T2 sequence (P42226 123-658): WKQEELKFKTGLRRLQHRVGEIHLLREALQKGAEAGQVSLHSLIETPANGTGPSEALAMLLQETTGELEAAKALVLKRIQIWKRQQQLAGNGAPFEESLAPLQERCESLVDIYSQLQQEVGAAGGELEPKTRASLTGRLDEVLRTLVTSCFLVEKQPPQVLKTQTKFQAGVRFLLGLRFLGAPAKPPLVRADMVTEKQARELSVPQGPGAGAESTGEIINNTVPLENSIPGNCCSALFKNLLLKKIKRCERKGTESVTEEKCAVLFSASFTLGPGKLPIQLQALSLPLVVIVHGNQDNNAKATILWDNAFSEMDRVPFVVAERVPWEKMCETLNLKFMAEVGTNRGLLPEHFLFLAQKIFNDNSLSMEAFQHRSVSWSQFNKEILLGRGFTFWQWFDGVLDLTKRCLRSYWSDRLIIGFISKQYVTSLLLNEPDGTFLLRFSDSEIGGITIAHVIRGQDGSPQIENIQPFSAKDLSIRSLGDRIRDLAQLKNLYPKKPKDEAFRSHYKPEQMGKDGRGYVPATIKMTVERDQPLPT
In short: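 STAT6 (W123-T658) at 250 nM mixed with 2 nM 5-FAM-ApYKPFQDLI-NH2 probe in HEPES pH 7.4 buffer with DTT and Tween 20, 1% DMSO final. Polarization read after 45 min at room temperature; IC50 by nonlinear regression of mP versus log concentration, reported in bins A–D.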

T1 sequence (P40763 127-722, species assumed): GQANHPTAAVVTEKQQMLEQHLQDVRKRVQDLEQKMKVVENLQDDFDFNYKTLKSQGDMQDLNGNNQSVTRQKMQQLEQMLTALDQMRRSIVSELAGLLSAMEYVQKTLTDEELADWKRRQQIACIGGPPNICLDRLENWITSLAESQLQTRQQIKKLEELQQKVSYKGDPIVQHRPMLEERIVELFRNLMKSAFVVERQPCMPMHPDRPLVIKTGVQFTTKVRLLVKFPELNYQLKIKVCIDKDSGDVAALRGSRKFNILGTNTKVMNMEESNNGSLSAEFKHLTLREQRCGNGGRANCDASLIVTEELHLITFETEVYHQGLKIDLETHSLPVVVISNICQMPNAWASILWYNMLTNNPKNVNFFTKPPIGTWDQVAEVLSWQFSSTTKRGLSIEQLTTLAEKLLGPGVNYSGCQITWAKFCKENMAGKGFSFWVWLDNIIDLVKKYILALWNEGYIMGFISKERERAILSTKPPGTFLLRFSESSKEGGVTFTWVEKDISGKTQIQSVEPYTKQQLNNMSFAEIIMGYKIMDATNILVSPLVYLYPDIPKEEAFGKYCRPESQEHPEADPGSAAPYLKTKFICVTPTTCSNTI

SMILES: O=C(N[C@H]1C[C@@H]2C[C@@H]2C[C@H]2CC[C@@H](C(=O)N[C@@H]3CCN(c4cn[nH]c4)C3)N2C1=O)c1cc2cc(C(F)(F)P(=O)(O)O)ccc2s1 [Compound 120, ((2-(((3S,6S,7aS,8aR,9aR)-3-(((R)-1-(1H-pyrazol-4-yl)pyrrolidin-3-yl)carbamoyl)-5-oxodecahydro-1H-cyclopropa[d]pyrrolo[1,2-a]azocin-6-yl)carbamoyl)benzo[b]thiophen-5-yl)difluoromethyl)phosphonic acid]
IC50 [1]: 0.1 to 1 µM
IC50 [2]: 0.3 to 3 µM

SMILES: O=C(N[C@H]1C[C@H]2C[C@H]2C[C@H]2CC[C@@H](C(=O)NCc3c[nH]c4ncccc34)N2C1=O)c1cc2cc(C(F)(F)P(=O)(O)O)ccc2s1 [Compound 124, ((2-(((3S,6S,7aR,8aS,9aR)-3-(((1H-pyrrolo[2,3-b]pyridin-3-yl)methyl)carbamoyl)-5-oxodecahydro-1H-cyclopropa[d]pyrrolo[1,2-a]azocin-6-yl)carbamoyl)benzo[b]thiophen-5-yl)difluoromethyl)phosphonic acid]
IC50 [1]: < 0.1 µM
IC50 [2]: 0.3 to 3 µM

SMILES: O=C(N[C@H]1C[C@H]2C[C@H]2C[C@H]2CC[C@@H](C(=O)N3CCN(C4CCOCC4)CC3)N2C1=O)c1cc2cc(C(F)(F)P(=O)(O)O)ccc2s1 [Compound 125, (difluoro(2-(((3S,6S,7aR,8aS,9aR)-5-ox0-3-(4-(tetrahydro-2H-pyran-4-yl)piperazine-1-carbonyl)decahydro-1H-cyclopropa[d]pyrrolo[1,2-a]azocin-6-yl)carbamoyl)benzo[b]thiophen-5-yl)methyl)phosphonic acid]
IC50 [1]: 0.1 to 1 µM
IC50 [2]: 3 to 30 µM

SMILES: CC(=O)N1C[C@H](NC(=O)[C@@H]2CC[C@@H]3C[C@@H]4C[C@@H]4C[C@H](NC(=O)c4cc5cc(C(F)(F)P(=O)(O)O)ccc5s4)C(=O)N32)[C@@H](F)C1 [Compound 126, ((2-(((3S,6S,7aR,8aS,9aR)-3-(((3S,4S)-1-acetyl-4-fluoropyrrolidin-3-yl)carbamoyl)-5-oxodecahydro-1H-cyclopropa[d]pyrrolo[1,2-a]azocin-6-yl)carbamoyl)benzo[b]thiophen-5-yl)difluoromethyl)phosphonic acid]
IC50 [1]: < 0.1 µM
IC50 [2]: 0.3 to 3 µM

SMILES: CC(=O)N1C[C@@H](F)[C@@H](NC(=O)[C@@H]2CC[C@@H]3C[C@@H]4C[C@@H]4C[C@H](NC(=O)c4cc5cc(C(F)(F)P(=O)(O)O)ccc5s4)C(=O)N32)C1 [Compound 127, ((2-(((3S,6S,7aR,8aS,9aR)-3-(((3S,4R)-1-acetyl-4-fluoropyrrolidin-3-yl)carbamoyl)-5-oxodecahydro-1H-cyclopropa[d]pyrrolo[1,2-a]azocin-6-yl)carbamoyl)benzo[b]thiophen-5-yl)difluoromethyl)phosphonic acid]
IC50 [1]: < 0.1 µM
IC50 [2]: 3 to 30 µM

SMILES: C[C@@H]1CN(C(=O)C2CN(C(=O)[C@@H]3CC[C@@H]4C[C@H]5C[C@H]5C[C@H](NC(=O)c5cc6cc(C(F)(F)P(=O)(O)O)ccc6s5)C(=O)N43)C2)CCO1 [Example 1, (difluoro(2-(((3S,6S,7aS,8aR,9aR)-3-(3-((R)-2-methylmorpholine-4-carbonyl)azetidine-1-carbonyl)-5-oxodecahydro-1H-cyclopropa[d]pyrrolo[1,2-a]azocin-6-yl)carbamoyl)benzo[b]thiophen-5-yl)methyl)phosphonic acid]
IC50 [1]: < 0.1 µM
IC50 [2]: 3 to 30 µM

SMILES: O=C(N[C@H]1C[C@@H]2C[C@@H]2C[C@H]2CC[C@@H](C(=O)Nc3ccc(-c4ccccc4)cc3)N2C1=O)c1cc2cc(C(F)(F)P(=O)(O)O)ccc2s1 [Example 3, ((2-(((3S,6S,7aS,8aR,9aR)-3-([1,1′-biphenyl]-4-ylcarbamoyl)-5-oxodecahydro-1H-cyclopropa[d]pyrrolo[1,2-a]azocin-6-yl)carbamoyl)benzo[b]thiophen-5-yl)difluoromethyl)phosphonic acid]
IC50 [1]: 0.1 to 1 µM
IC50 [2]: 0.3 to 3 µM

SMILES: O=C(N[C@H]1C[C@@H]2C[C@@H]2C[C@H]2CC[C@@H](C(=O)N3CCN(C(=O)[C@@H]4CCOC4)CC3)N2C1=O)c1cc2cc(C(F)(F)P(=O)(O)O)ccc2s1 [Example 7, (difluoro(2-(((3S,6S,7aS,8aR,9aR)-5-oxo-3-(4-((R)-tetrahydrofuran-3-carbonyl)piperazine-1-carbonyl)decahydro-1H-cyclopropa[d]pyrrolo[1,2-a]azocin-6-yl)carbamoyl)benzo[b]thiophen-5-yl)methyl)phosphonic acid]
IC50 [1]: 0.1 to 1 µM
IC50 [2]: 0.3 to 3 µM

SMILES: O=C(N[C@H]1C[C@@H]2C[C@@H]2C[C@H]2CC[C@@H](C(=O)N3CCN(C(=O)[C@H]4CCOC4)CC3)N2C1=O)c1cc2cc(C(F)(F)P(=O)(O)O)ccc2s1 [Example 8, (Difluoro(2-(((3S,6S,7aS,8aR,9aR)-5-oxo-3-(4-((S)-tetrahydrofuran-3-carbonyl)piperazine-1-carbonyl)decahydro-1H-cyclopropa[d]pyrrolo[1,2-a]azocin-6-yl)carbamoyl)benzo[b]thiophen-5-yl)methyl)phosphonic acid]
IC50 [1]: 0.1 to 1 µM
IC50 [2]: 3 to 30 µM

Second part, the compound after the results:

IC50 [1]: < 0.1 µM
IC50 [2]: 0.3 to 3 µM
SMILES: O=C(N[C@H]1C[C@H]2C[C@H]2C[C@H]2CC[C@@H](C(=O)N3CC(c4ccccc4)C3)N2C1=O)c1cc2cc(C(F)(F)P(=O)(O)O)ccc2s1 [Compound 121]

IC50 [1]: 0.1 to 1 µM
IC50 [2]: 3 to 30 µM
SMILES: CC(C)(CNC(=O)[C@@H]1CC[C@@H]2C[C@@H]3C[C@@H]3C[C@H](NC(=O)c3cc4cc(C(F)(F)P(=O)(O)O)ccc4s3)C(=O)N21)c1cccnc1 [Compound 122, (difluoro(2-(((3S,6S,7aR,8aS,9aR)-3-((2-methyl-2-(pyridin-3-yl)propyl)carbamoyl)-5-oxodecahydro-1H-cyclopropa[d]pyrrolo[1,2-a]azocin-6-yl)carbamoyl)benzo[b]thiophen-5-yl)methyl)phosphonic acid]

IC50 [1]: 0.1 to 1 µM
IC50 [2]: 3 to 30 µM
SMILES: O=C(N[C@H]1C[C@H]2C[C@H]2C[C@H]2CC[C@@H](C(=O)NCC(CO)c3cccnc3)N2C1=O)c1cc2cc(C(F)(F)P(=O)(O)O)ccc2s1 (stereo partly drawn) [Compound 123, (difluoro(2-(((3S,6S,7aR,8aS,9aR)-3-((3-hydroxy-2-(pyridin-3-yl)propyl)carbamoyl)-5-oxodecahydro-1H-cyclopropa[d]pyrrolo[1,2-a]azocin-6-yl)carbamoyl)benzo[b]thiophen-5-yl)methyl)phosphonic acid]

IC50 [1]: < 0.1 µM
IC50 [2]: 0.3 to 3 µM
SMILES: O=C(N[C@H]1C[C@H]2C[C@H]2C[C@H]2CC[C@@H](C(=O)N[C@H]3CN(c4cccnc4)C[C@@H]3F)N2C1=O)c1cc2cc(C(F)(F)P(=O)(O)O)ccc2s1 [Compound 128, (difluoro(2-(((3S,6S,7aR,8aS,9aR)-3-(((3S,4S)-4-fluoro-1-(pyridin-3-yl)pyrrolidin-3-yl)carbamoyl)-5-oxodecahydro-1H-cyclopropa[d]pyrrolo[1,2-a]azocin-6-yl)carbamoyl)benzo[b]thiophen-5-yl)methyl)phosphonic acid]

IC50 [1]: < 0.1 µM
IC50 [2]: 3 to 30 µM
SMILES: O=C(N[C@H]1C[C@H]2C[C@H]2C[C@H]2CC[C@@H](C(=O)N[C@H]3CN(c4cccnc4)C[C@H]3F)N2C1=O)c1cc2cc(C(F)(F)P(=O)(O)O)ccc2s1 [Compound 129, (difluoro(2-(((3S,6S,7aR,8aS,9aR)-3-(((3S,4R)-4-fluoro-1-(pyridin-3-yl)pyrrolidin-3-yl)carbamoyl)-5-oxodecahydro-1H-cyclopropa[d]pyrrolo[1,2-a]azocin-6-yl)carbamoyl)benzo[b]thiophen-5-yl)methyl)phosphonic acid]

IC50 [1]: 0.1 to 1 µM
IC50 [2]: 0.3 to 3 µM
SMILES: CC(=O)N1C[C@H](NC(=O)[C@@H]2CC[C@@H]3C[C@H]4C[C@H]4C[C@H](NC(=O)c4cc5cc(C(F)(F)P(=O)(O)O)ccc5s4)C(=O)N32)[C@@H](O)C1 [Example 9, ((2-(((3S,6S,7aS,8aR,9aR)-3-(((3S,4S)-1-acetyl-4-hydroxypyrrolidin-3-yl)carbamoyl)-5-oxodecahydro-1H-cyclopropa[d]pyrrolo[1,2-a]azocin-6-yl)carbamoyl)benzo[b]thiophen-5-yl)difluoromethyl)phosphonic acid]

IC50 [1]: < 0.1 µM
IC50 [2]: 0.3 to 3 µM
SMILES: C[C@@]12C[C@H]3CC[C@@H](C(=O)N4CC(c5cccnc5)C4)N3C(=O)[C@@H](NC(=O)c3cc4cc(C(F)(F)P(=O)(O)O)ccc4s3)C[C@@H]1C2 [Example 230, (difluoro(2-(((3S,6S,7aS,8aR,9aR)-8a-methyl-5-oxo-3-(3-(pyridin-3-yl)azetidine-1-carbonyl)decahydro-1H-cyclopropa[d]pyrrolo[1,2-a]azocin-6-yl)carbamoyl)benzo[b]thiophen-5-yl)methyl)phosphonic acid]
